# According to patent publication US20060079552A1, “1-[2-(4-benzyl-4-hydroxy-piperidin-1-yl)-ethyl]-3-(2-methyl-quinolin-4-yl)-urea salt” (priority 2004, published 2006):
# Counter-ions that a name gives are not always drawn.
# What was measured:
# [1] = Pharmacokinetic assessment after oral (gavage) administration in rats; type: in vivo, male Wistar rats; conditions: for mean exposure, area under the curve (AUC0-inf.): oral (gavage) 10 mg per kg, male Wistar rats, blood samples over 24 h
# Protocol: The pharmacokinetic parameters after oral (gavage) administration of 10 mg per kg of 1-[2-(4-benzyl-4-hydroxy-piperidin-1-yl )-ethyl]-3-(2-methyl-quinolin-4-yl )-urea given as free base or sulfate salt have been determined in male Wistar rats. Blood samples were taken over a time period of 24 h after dosing and analysed with a specific and sensitive liquid chromatography-mass-spectrometry (LC-MS/MS) method. Pharmacokinetic parameters were calculated using a non-compartmental method. The mean exposure of 1-[2-(4-benzyl-4-hydroxy-piperidin-1-yl)-ethyl]-3-(2-methyl-quinolin-4-yl)-urea, expressed as area under the curve (AUC0-inf.), after administration of compound I as free base was 194 ng*h/mL. The mean exposure of 1-[2-(4-benzyl-4-hydroxy-piperidin-1-yl )-ethyl]-3-(2-methyl-quinolin-4-yl )-urea expressed as area under the curve (AUC0-inf.), after administration of the compound described in Example 1 was 396 ng*h/mL.
# [2] = Solubility in water and aqueous phosphate buffer pH 7; type: physicochemical; conditions: for Solubility Buffer pH 7 (phosphate, 100 mM): aqueous phosphate buffer pH 7, 100 mM
# Protocol: Solubility was measured in water and aqueous phosphate buffer (pH=7, 100 mM). Results are expressed as mg dissolved compound per mL solvent.
# [3] = Stress test / behaviour at higher temperature and higher humidity; type: physicochemical
# Protocol: NMR spectra were recorded on a Varian Mercury 300VX NMR Spectrometer. The spectra are referenced to tetramethylsilane as external standard. X-ray diffraction patterns (XRD) were recorded on a Bruker D5000, using a CU-Kalpha (1.5418 Å) source, a 40 kV-30 mA generator, in a range of 3 et 40° (2theta). Stress test studies were done by exposing samples in open and closed glass bottles to the following conditions: 60° C./80% RH (8 weeks) and 80° C./RH not controlled (48 h).
# [4] = Hygroscopicity, static method (European Pharmacopoeia Technical Guide), weight increase in humidity cabinet; type: physicochemical; conditions: for Increase in weight (Δm): after exposure to 79% RH for 24 h, RT
# Protocol: Hygroscopicity was evaluated using the static method according to European Pharmacopoeia Technical Guide. Weight increase of the compound was observed when stored in a humidity cabinet at RT/79% RH for 24 h.
# urotensin II receptor = molecular target: T1, urotensin II receptor (Homo sapiens, UniProt Q9UKP6); conditions: Clozel et al., J. Pharmcol. Exp. Ther. 2004, 311, 204-212; cited from earlier work
# T1 sequence (Q9UKP6 1-389): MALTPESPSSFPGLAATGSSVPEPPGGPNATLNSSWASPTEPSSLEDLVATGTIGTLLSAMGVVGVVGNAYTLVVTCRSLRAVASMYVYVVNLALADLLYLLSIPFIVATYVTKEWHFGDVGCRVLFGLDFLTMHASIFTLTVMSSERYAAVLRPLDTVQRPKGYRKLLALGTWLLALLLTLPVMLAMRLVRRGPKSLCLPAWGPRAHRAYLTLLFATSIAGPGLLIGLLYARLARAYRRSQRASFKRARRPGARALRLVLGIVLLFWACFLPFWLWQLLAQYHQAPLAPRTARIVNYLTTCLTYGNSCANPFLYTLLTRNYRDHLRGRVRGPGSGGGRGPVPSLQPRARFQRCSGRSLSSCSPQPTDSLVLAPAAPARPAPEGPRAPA
smiles,measurement,setting,value
"Cc1cc(NC(=O)NCCN2CCC(O)(Cc3ccccc3)CC2)c2ccccc2n1 [Example 1, 1-[2-(4-Benzyl-4-hydroxy-piperidin-1-yl)-ethyl]-3-(2-methyl-quinolin-4-yl)-urea sulfate]","mean exposure, area under the curve (AUC0-inf.)",[1]; sulfate,396 ng·h/mL
"Cc1cc(NC(=O)NCCN2CCC(O)(Cc3ccccc3)CC2)c2ccccc2n1 [Example 5, 1-[2-(4-Benzyl-4-hydroxy-piperidin-1-yl)-ethyl]-3-(2-methyl-quinolin-4-yl)-urea malate]",Solubility water,"[2]; water, malate",>101 mg/mL
"Cc1cc(NC(=O)NCCN2CCC(O)(Cc3ccccc3)CC2)c2ccccc2n1 [Compound I, 1-[2-(4-Benzyl-4-hydroxy-piperidin-1-yl)-ethyl]-3-(2-methyl-quinolin4-yl)-urea]","Solubility Buffer pH 7 (phosphate, 100 mM)",[2],0.31 mg/mL
same,Solubility water,[2]; water,0.8 mg/mL
same,solubility in water at pH 7 (in words),[2]; water at pH 7,slightly soluble
same,agglomeration,[3],agglomerates to a substance cake
same,colour stability,[3],its colour changes at higher temperature and higher humidity
same,"mean exposure, area under the curve (AUC0-inf.)",[1]; listed as compound I as free base,194 ng·h/mL
same,bioavailability after oral dosing,"[1]; rat, oral dosing",low bioavailability
same,hygroscopicity (in words),[4],hygroscopic
same,Increase in weight (Δm),[4]; listed as Compound I as free base,8%
same,urotensin II receptor antagonism,urotensin II receptor,potent urotensin II receptor antagonist
"Cc1cc(NC(=O)NCCN2CCC(O)(Cc3ccccc3)CC2)c2ccccc2n1.O=C(O)CC(O)(CC(=O)O)C(=O)O [Example 6, 1-[2-(4-Benzyl-4-hydroxy-piperidin-1-yl)-ethyl]-3-(2-methyl-quinolin-4-yl)-urea citrate]",solubility,[2]; water,17.8 mg/mL
"Cc1cc(NC(=O)NCCN2CCC(O)(Cc3ccccc3)CC2)c2ccccc2n1 [Example 2, 1-[2-(4-Benzyl-4-hydroxy-piperidin-1-yl)-ethyl]-3-(2-methyl-quinolin-4-yl)-urea sulfate]","Solubility Buffer pH 7 (phosphate, 100 mM)",[2]; sulfate,27 mg/mL
same,Solubility water,"[2]; water, sulfate",11.3 mg/mL
same,Increase in weight (Δm),[4]; sulfate,4%
